Holding throughout (assay type): in vivo, Mouse (ICR:CD-1)
Data set [1] deals with PTZ mouse model of seizures. The experiment in a line: PTZ-induced seizures study. The following applies: for Protection from clonic seizures (PTZ) vs vehicle / Protection from tonic hindlimb seizures (PTZ) vs vehicle: 200 mg/kg IP, PTZ 100 mg/kg i.p. The method, then: Route(s) of administration: Intraperitoneal (i.p.) and per oral (p.o.) (Diazepam)
(§1) Vehicle for the test compounds: 1:1:18 ethanol:cremophor (Kolliphor) EL:0.9% saline
Vehicle for diazepam: 0.5% MC, 0.1% Tween 80 in water
Interval between dose and evaluation: 30 min for test articles and diazepam, 60 min for CBD
Mice were acclimated to the procedure room for at least 30 minutes. Pentylenetetrazole (PTZ; SigmaAldrich) was formulated in water to a concentration of 20 mg/ml. Injections of PTZ were made at a volume of 5 ml/kg to produce a final dose of 100 mg/kg. PTZ injections were i.p. Diazepam was formulated at a concentration of 2 mg/ml and administered at volume of 10 ml/kg to produce a final dose of 20 mg/kg. Time to initial myoclonic and tonic hindlimb extensor response was measured. A 10-min maximum latency to seizure was imposed.
(§2) The data was expressed as mean+SEM. Statistical analysis using one-way ANOVA with post-hoc Fisher's LSD test was used to determine statistical significance compared to the vehicle-treated animals.

Data set [2] in a line: PK study: plasma levels after i.p. administration (LC/MS/MS). The following applies: 100 mg/kg i.p.; for Time of maximal concentration in plasma after the injection: sampling at 30, 60, 120 min; for concentration at 30 min / concentration at 60 min / concentration at 120 min: CD-1, mouse, plasma, intraperitoneal, 100 mg/kg. As for the experimental part:
Route(s) of administration: Intraperitoneal (i.p.)
Vehicle for the test compounds and CBD: 1:1:18 ethanol:cremophor (Kolliphor) EL:0.9% saline
IP administration: 0.5 h (30 min), 1 h, 2 h,
For testing of each compound, six CD-1 mice were divided into 2 groups of 3. Animals were administered test agents via i.p. route and blood collected at 30, 60 and 120 min, administration as outlined in Table 1. Blood samples were collected in EDTA-coated microfuge tubes, inverted and placed on an ice pack prior to centrifugation and storage at −70° C. Samples were extracted using an acetonitrile/protein precipitation method and levels of test agent analysed by LC/MS/MS.
Bioanalytical detection method was developed using an LC/MS/MS (ABI 5000 or 5500). Standard curves of the test agent were prepared in an appropriate biological matrix (plasma). Levels of test article was measured in plasma as per the developed method.
Levels were determined by extrapolating the concentration from a standard curve using linear regression analysis. Method development and bioanalysis was performed by a partner company, Keystone Bioanalytical (North Wales, Pa., US).

The test system of data set [3] is MES mouse model of seizures. The experiment in a line: Maximal Electroshock (MES) seizure study. The following applies: for Effect in MES study (latency to tonic hindlimb seizure) vs vehicle: 200 mg/kg IP. The method, then: Route(s) of administration: Intraperitoneal (i.p.) and per oral (p.o.)
as §1
Vehicle for phenytoin: 0.5% MC in water
Dose Levels: 100-200 mg/kg (Table 2), Phenytoin 60 mg/kg
Interval between dose and evaluation: 30 min for test articles and phenytoin, 60 min for CBD
Animals were administered vehicle, phenytoin, CBD or test compounds and gross behavioural observations were done for 30 minutes. Proparacaine hydrochloride ophthalmic solution (Butler AHS, Dublin, Ohio) was applied approximately 10 minutes prior to testing to numb the eyes. Thirty to sixty minutes after administration of vehicle, phenytoin, CBD or test compounds, 0.9% saline solution (sodium chloride in water) was applied to both eyes and electro-convulsions were produced by an alternating current delivered via corneal electrodes by a Rodent Shocker generator at a frequency of 60 Hz (Harvard Apparatus, Holliston, Mass.). Parameters for the ICR:CD1 mice were 0.2 s stimulus duration at an intensity of 25 mA. The criterion for seizure occurrence were presence of a tonic hind limb extension, defined as extension exceeding a 90-degree angle with the plane of the body. […] Any seizure activity (i.e. clonic seizures defined as rapid spasms or jerky movements of the limbs) prior to tonic hind limb seizure were recorded as presence of seizure (noted as 1-yes, 0-no). After seizure exhibition or 20-second timeout, mice were euthanized via cervical dislocation.
as §2
A general note: In the maximal electroshock model the usual endpoint is tonic extension of the hind limbs.

Setting [4] is: 30 min pretreatment, listed as (−)-trans CBD-PET.
[5] abbreviates: 30 min pretreatment, listed as CBD-PET.
The mark [6] stands for this setting: 30 min pretreatment, listed as (−)-trans CBD-PET-OH.
Where [7] appears, read: 30 min pretreatment, listed as CBD-PET-OH.

Several values for one entry are separate records, joined by “and”; a condition that tells them apart may be missing. Identical values can stand only once. Like-named read-outs stand apart in the source and are kept apart here.

On to `CN1C(=O)CN=C(c2ccccc2)c2cc(Cl)ccc21` [diazepam, reference compound], for which the “Protection from the seizures (PTZ, clonic and tonic hindlimb)” value in data set [1] (30 mg/kg PO (Table 3), 30 min pretreatment, positive control) is 100%.

On to `C=C(C)[C@@H]1CCC(C)=C[C@H]1c1c(O)cc(CCc2ccccc2)cc1O` [(−)-trans-CBD-PET, (1′R,2′R)-5′-methyl-4-phenethyl-2′-(prop-1-ene-2-yl)-1′,2′,3′,4′-tetrahydro-[1,1′-biphenyl]-2,6-diol], for which the “(—)-trans-CBD-PET in plasma” value in data set [2] (30 min, individual animals) was 3519.2 ng/mL and 3872.3 ng/mL; in data set [2] (60 min, individual animals) it was 2729.5 ng/mL and 1728.7 ng/mL; in data set [2] (120 min, individual animals) it was 2188.6 ng/mL and 770.3 ng/mL and 982.7 ng/mL. Also, in data set [2], the “Time of maximal concentration in plasma after the injection” value is reported as 30 min. For the same molecule, the concentration at 30 min in data set [2] (30 min, average of 3 mice, read-out: Average (ng/ml), (—)-trans-CBD-PET in plasma) stood at 3810 ng/mL; in data set [2] (30 min, individual animals, read-out: (—)-trans-CBD-PET in plasma) it was 4030 ng/mL. Also, the concentration at 60 min in data set [2] (60 min, average of 3 mice, read-out: Average (ng/ml), (—)-trans-CBD-PET in plasma) was 2140 ng/mL; in data set [2] (60 min, individual animals, read-out: (—)-trans-CBD-PET in plasma), 1960 ng/mL. Moreover, the concentration at 120 min in data set [2] (120 min, average of 3 mice, read-out: Average (ng/ml), (—)-trans-CBD-PET in plasma) was 1310 ng/mL. Besides, the “Protection from clonic seizures (PTZ) vs vehicle” value was “significant protection” in data set [1] (setting [4]); “activity against both clonic and tonic seizures” in data set [1] (setting [5]). The “Protection from tonic hindlimb seizures (PTZ) vs vehicle” value in data set [1] (setting [4]) is “significant effect”; in data set [1] (setting [5]) it was “activity against both clonic and tonic seizures”. For the same molecule, in data set [3] (30 min pretreatment), the “Effect in MES study (latency to tonic hindlimb seizure) vs vehicle” value is “inactive”.

With `C=C(C)[C@@H]1CCC(C)=C[C@H]1c1c(O)cc(CCCCC)cc1O` [Cannabidiol, reference compound], in data set [1] (100 mg/kg IP, 60 min prior to PTZ), the “Effect in PTZ model vs vehicle” value was “did not produce a significant effect”. In addition, in data set [3] (100 mg/kg IP, 60 min prior to MES), the “Effect in MES model vs vehicle” value is reported as “did not produce a significant effect”.

Regarding `C=C(C)[C@@H]1CCC(C)=C[C@H]1c1c(O)cc(CCc2ccc(O)cc2)cc1O` [(−)-trans-CBD-PET-OH, (1′R,2′R)-4-(4-hydroxyphenethyl)-5′-methyl-2′-(prop-1-ene-2-yl)-1′,2′,3′,4′-tetrahydro-[1,1′-biphenyl]-2,6-diol], the “(—)-trans-CBD-PET-OH in plasma” value was 8897.4 ng/mL and 8936.2 ng/mL in data set [2] (30 min, individual animals); 8877.8 ng/mL and 8055.5 ng/mL in data set [2] (60 min, individual animals); 2831.1 ng/mL and 3274.9 ng/mL in data set [2] (120 min, individual animals). The “Time of maximal concentration in plasma after the injection” value in data set [2] stood at 30 min. The concentration at 30 min in data set [2] (30 min, average of 3 mice, read-out: Average (ng/ml), (—)-trans-CBD-PET-OH in plasma) worked out at 8120 ng/mL; in data set [2] (30 min, individual animals, read-out: (—)-trans-CBD-PET-OH in plasma), 6520 ng/mL. Also, the concentration at 60 min amounted to 7920 ng/mL in data set [2] (60 min, average of 3 mice, read-out: Average (ng/ml), (—)-trans-CBD-PET-OH in plasma) and 6840 ng/mL in data set [2] (60 min, individual animals, read-out: (—)-trans-CBD-PET-OH in plasma). The concentration at 120 min in data set [2] (120 min, average of 3 mice, read-out: Average (ng/ml), (—)-trans-CBD-PET-OH in plasma) stood at 3460 ng/mL; in data set [2] (120 min, individual animals, read-out: (—)-trans-CBD-PET-OH in plasma) it was 4290 ng/mL. In addition, the “Protection from tonic hindlimb seizures (PTZ) vs vehicle” value in data set [1] (setting [6]) was “significant effect”; in data set [1] (setting [7]) it was “particularly effective against tonic seizures”. Also, the “Effect in MES study (latency to tonic hindlimb seizure) vs vehicle” value in data set [3] (setting [6]) is on record as “significantly different from vehicle”; in data set [3] (setting [7]), “effective”.

Turning to `O=C1NC(=O)C(c2ccccc2)(c2ccccc2)N1` [phenytoin, reference compound], the “Protection from the seizures (MES)” value in data set [3] (60 mg/kg PO, 30 min pretreatment, positive control) turned out to be 100%.

For the origin of these results see patent US20230225985A1, “TERPE[…] AND THEIR USE” (Phytotherapeutix Ltd., priority 2020, published 2023).
